From patent US10329294B2, “Pyrazolopyrimidine inhibitors of IRAK4 activity” (MERCK SHARP & DOHME CORP., priority 2015, dated 2019) come the findings set out here.

The test deals with IRAK4 (Homo sapiens (Human), UniProt Q9NWZ3). Put plainly: IRAK4 Kinase Assay. It is filed as biochemical. The following applies: IMAP fluorescence polarization, 0.5 nM GST tagged IRAK4, 100 μM ATP, 30 minutes at 25° C. For orientation: Polarisation of emitted light reports the rotation of a fluorescent probe.

Molecules are shown by their SMILES. Structures can show the parent of a compound that is named as a salt. Where two headings read alike, the source gives them in different places.

Sequence of IRAK4 (Q9NWZ3 whole entry): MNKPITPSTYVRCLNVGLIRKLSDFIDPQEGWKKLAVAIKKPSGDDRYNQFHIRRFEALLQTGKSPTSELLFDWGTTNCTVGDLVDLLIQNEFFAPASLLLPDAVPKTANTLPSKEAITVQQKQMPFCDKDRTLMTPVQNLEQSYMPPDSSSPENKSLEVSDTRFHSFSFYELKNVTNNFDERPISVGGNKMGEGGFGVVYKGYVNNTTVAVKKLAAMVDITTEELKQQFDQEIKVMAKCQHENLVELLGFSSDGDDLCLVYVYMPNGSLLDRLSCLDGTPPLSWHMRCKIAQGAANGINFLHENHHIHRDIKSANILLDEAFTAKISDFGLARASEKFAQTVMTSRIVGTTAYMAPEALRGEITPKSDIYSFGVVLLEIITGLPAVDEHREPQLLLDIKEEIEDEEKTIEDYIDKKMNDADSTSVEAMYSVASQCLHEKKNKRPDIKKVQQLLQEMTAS

In general, IC50 refers to the midpoint of a concentration-inhibition curve. Turning to `Cn1cc(NC(=O)c2cnn3ccc(N4CCNCC4C4CC4)nc23)c(C(F)(F)F)n1` (stereo not shown) [Example 29, 5-(2-cyclopropylpiperazin-1-yl)-N-[1-methyl-3-(trifluoromethyl)-1H-pyrazol-4-yl]pyrazolo[1,5-a]pyrimidine-3-carboxamide trifluoroacetate], the IC50 (read-out: IRAK4 IC50) was found to be 24 nM. In the case of `O=C(Nc1cscc1Cl)c1cnn2ccc(N3CCCNCC3)nc12` [Example 167, N-(4-chlorothiophen-3-yl)-5-(1,4-diazepan-1-yl)pyrazolo[1,5-a]pyrimidine-3-carboxamide trifluoroacetate], where the note is “read-out: IRAK4 IC50”, the half-inhibitory concentration (IC50) stood at 480 nM. For the compound `Cn1cc(NC(=O)c2cnn3ccc(N4C[C@@H]5CN[C@@H](C5)C4)nc23)c(C(F)F)n1` (single isomer, unassigned) [Example 183, 5-[(1S,5S)- or (1R,5R)-3,6-diazabicyclo[3.2.1]oct-3-yl]-N-[3-(difluoromethyl)-1-methyl-1H-pyrazol-4-yl]pyrazolo[1,5-a]pyrimidine-3-carboxamide trifluoroacetate], the IC50 (read-out: IRAK4 IC50) turned out to be 6 nM.

Consider `O=C(Nc1ccccc1C(F)F)c1cnn2ccc(N3CC4CCC3CN4)nc12` (stereo not shown) [Example 146, 5-(2,5-diazabicyclo[2.2.2]oct-2-yl)-N-[2-(difluoromethyl)phenyl] pyrazolo[1,5-a]pyrimidine-3-carboxamide trifluoroacetate], for which the IC50 (read-out: IRAK4 IC50) was 1460 nM. For `Cn1cc(NC(=O)c2cnn3ccc(NC4CNCCC4F)nc23)c(C(F)F)n1` (single isomer, unassigned) [Example 236, N-[3-(difluoromethyl)-1-methyl-1H-pyrazol-4-yl]-5-[(3R or S, 4R or S-4-fluoropiperidin-3-yl)amino]pyrazolo[1,5-a]pyrimidine-3-carboxamide], the IC50 (read-out: IRAK4 IC50) was 0.6 nM. As for `CN1CCN(c2ccn3ncc(C(=O)Nc4cn(C)nc4C(F)(F)F)c3n2)C(C)(C)C1` [Example 35, N-[1-methyl-3-(trifluoromethyl)-1H-pyrazol-4-yl]-5-(2,2,4-trimethylpiperazin-1-yl)pyrazolo[1,5-a]pyrimidine-3-carboxamide trifluoroacetate], where the note is “read-out: IRAK4 IC50”, the IC50 turned out to be 589 nM.

As for `N[C@@H]1[C@H](Nc2ccn3ncc(C(=O)Nc4ccccc4Br)c3n2)CCCC1(F)F` [Example 108, 5-{[(1R,2R)-2-amino-3,3-difluorocyclohexyl]amino}-N-(2-bromophenyl)pyrazolo[1,5-a]pyrimidine-3-carboxamide trifluoroacetate], the concentration for half-maximal inhibition (IC50) (read-out: IRAK4 IC50) turned out to be 1890 nM. For the compound `CC(O)c1cc(NC(=O)c2cnn3ccc(N[C@@H]4CCCC[C@@H]4N)nc23)cs1` (stereo partly drawn) [Example 276, 5-(((1R,2S)-2-Aminocyclohexyl)amino)-N-(5-(1-hydroxyethyl)thiophen-3-yl)pyrazolo[1,5-a]pyrimidine-3-carboxamide], the IC50 (read-out: IRAK4 IC50) was found to be 64 nM. Still for that read-out and setting: next, `Cn1cc(NC(=O)c2cnn3ccc(N4CC5CNC(C5)C4)nc23)c(C(F)(F)F)n1` (stereo not shown) [Example 223, 5-(3,6-diazabicyclo[3.2.1]oct-3-yl)-N-[1-methyl-3-(trifluoromethyl)-1H-pyrazol-4-yl]pyrazolo[1,5-a]pyrimidine-3-carboxamide trifluoroacetate]: 57 nM; `CN1CCN(c2ccn3ncc(C(=O)Nc4cn(C)nc4C(F)(F)F)c3n2)CC1` [Example 34, 5-(4-methylpiperazin-1-yl)-N-[1-methyl-3-(trifluoromethyl)-1H-pyrazol-4-yl]pyrazolo[1,5-a]pyrimidine-3-carboxamide]: 269 nM. The same measure, in the same setting: for `Cn1cc(NC(=O)c2cnn3ccc(N4C[C@@H]5CC[C@H]4CN5)nc23)c(C(F)(F)F)n1` (single isomer, unassigned) [Example 78, 5-[(1S,4S)- or (1R,4R)-2,5-diazabicyclo[2.2.2]oct-2-yl]-N-[1-methyl-3-(trifluoromethyl)-1H-pyrazol-4-yl]pyrazolo[1,5-a]pyrimidine-3-carboxamide trifluoroacetate] the value was 44 nM; for `Cn1cc(NC(=O)c2cnn3ccc(N4CCNC(C(F)(F)F)C4)nc23)c(C(F)(F)F)n1` (stereo not shown) [Example 15, N-[1-methyl-3-(trifluoromethyl)-1H-pyrazol-4-yl]-5-(3-(trifluoromethyl)piperazin-1-yl]pyrazolo[1,5-a]pyrimidine-3-carboxamide], 113 nM; for `CC(C)(C)n1cc(NC(=O)c2cnn3ccc(N[C@@H]4CCCC[C@@H]4N)nc23)c(C(F)(F)F)n1` [Example 294, 5-{[(1R,2S)-2-aminocyclohexyl]amino}-N-[1-tert-butyl-3-(trifluoromethyl)-1H-pyrazol-4-yl]pyrazolo[1,5-a]pyrimidine-3-carboxamide trifluoroacetate], 1 nM. Consider `Cn1cc(NC(=O)c2cnn3ccc(N[C@@H]4CCCNC4)nc23)c(C(F)(F)F)n1` [Example 9, N-[1-methyl-3-(trifluoromethyl)-1H-pyrazol-4-yl]-5-[(3R)-piperidin-3-ylamino]pyrazolo[1,5-a]pyrimidine-3-carboxamide trifluoroacetate], for which the half-maximal inhibitory concentration (IC50) (read-out: IRAK4 IC50) worked out at 0.5 nM. As to `Cn1cc(NC(=O)c2cnn3ccc(N[C@H]4CC(F)(F)CC[C@H]4N)nc23)c(C(F)F)n1` (single isomer, unassigned) [Example 210, 5-{[(1S,2R)- or (1R,2S)-2-amino-5,5-difluorocyclohexyl]amino}-N-[3-(difluoromethyl)-1-methyl-1H-pyrazol-4-yl]pyrazolo[1,5-a]pyrimidine-3-carboxamide], the half-maximal inhibitory concentration (IC50) (read-out: IRAK4 IC50) came out at 1 nM. On the same count and under the same terms, next, `Cn1cc(NC(=O)c2cnn3ccc(N4C[C@H](N)C[C@@H](F)C4)nc23)c(C(F)F)n1` [Example 253, 5-[(3R,5R)-3-amino-5-fluoropiperidin-1-yl]-N-[3-(difluoromethyl)-1-methyl-1H-pyrazol-4-yl]pyrazolo[1,5-a]pyrimidine-3-carboxamide trifluoroacetate]: 0.5 nM; `CN(C)[C@H]1CCCC[C@H]1Nc1ccn2ncc(C(=O)Nc3cn(C)nc3C(F)(F)F)c2n1` [Example 263, 5-(((1R,2S)-2-(Dimethylamino)cyclohexyl)amino)-N-(1-methyl-3-(trifluoromethyl)-1H-pyrazol-4-yl)pyrazolo[1,5-a]pyrimidine-3-carboxamide]: 72 nM; `Cn1cc(NC(=O)c2cnn3ccc(N4C[C@@H](O)C[C@H](O)C4)nc23)c(C(F)(F)F)n1` [Example 21, 5-[(3S,5S)-3,5-dihydroxypiperidin-1-yl]-N-[1-methyl-3-(trifluoromethyl)-1H-pyrazol-4-yl]pyrazolo[1,5-a]pyrimidine-3-carboxamide]: 20 nM. For `Cn1cc(NC(=O)c2cnn3ccc(N4CCC[C@H](N)C4)nc23)c(C(F)(F)F)n1` [Example 44, 5-[(3S)-3-aminopiperidin-1-yl]-N-[1-methyl-3-(trifluoromethyl)-1H-pyrazol-4-yl]pyrazolo[1,5-a]pyrimidine-3-carboxamide], the IC50 (read-out: IRAK4 IC50) was 5 nM. Still for that read-out and setting: next, `Cn1cc(NC(=O)c2cnn3ccc(N4CCC[C@@H](O)C4)nc23)c(C(F)F)n1` [Example 25, N-[3-(difluoromethyl)-1-methyl-1H-pyrazol-4-yl]-5-[(3R)-3-hydroxypiperidin-1-yl]pyrazolo[1,5-a]pyrimidine-3-carboxamide]: 0.5 nM; `Cn1cc(NC(=O)c2cnn3ccc(N[C@@H]4CCCCNC4)nc23)c(C(F)(F)F)n1` (single isomer, unassigned) [Example 160, 5-[(3S)- or (3R)-azepan-3-ylamino]-N-[1-methyl-3-(trifluoromethyl)-1H-pyrazol-4-yl]pyrazolo[1,5-a]pyrimidine-3-carboxamide trifluoroacetate]: 0.5 nM.

Take `Cn1cc(NC(=O)c2cnn3ccc(NC4CNCCC4F)nc23)c(C(F)F)n1` (single isomer, unassigned) [Example 234, N-[3-(difluoromethyl)-1-methyl-1H-pyrazol-4-yl]-5-[(3R or S, 4R or S-4-fluoropiperidin-3-yl)amino]pyrazolo[1,5-a]pyrimidine-3-carboxamide]: the half-maximal inhibitory concentration (IC50) (read-out: IRAK4 IC50) worked out at 5 nM. Take `CC(C)n1cc(NC(=O)c2cnn3ccc(N4CCNCC5(CC5)C4)nc23)c(C(F)(F)F)n1` [Example 51, 5-(5,8-diazaspiro[2.6]non-5-yl)-N-[1-(1-methylethyl)-3-(trifluoromethyl)-1H-pyrazol-4-yl]pyrazolo[1,5-a]pyrimidine-3-carboxamide]: the IC50 (read-out: IRAK4 IC50) was found to be 32 nM. In the case of `O=C(Nc1cscc1Cl)c1cnn2ccc(N3C[C@@H]4CC[C@H]3CN4)nc12` (single isomer, unassigned) [Example 169, N-(4-chlorothiophen-3-yl)-5-[(1S,4S)- or (1R,4R)-2,5-diazabicyclo[2.2.2]oct-2-yl]pyrazolo[1,5-a]pyrimidine-3-carboxamide trifluoroacetate], where the note is “read-out: IRAK4 IC50”, the IC50 worked out at 150 nM. With `N#Cc1ccccc1NC(=O)c1cnn2ccc(N[C@@H]3CCCC[C@@H]3N)nc12` [Example 265, 5-(((1R,2S)-2-Aminocyclohexyl)amino)-N-(2-cyanophenyl)pyrazolo[1,5-a]pyrimidine-3-carboxamide], the half-inhibitory concentration (IC50) (read-out: IRAK4 IC50) is 1 nM.

For `Cn1cc(NC(=O)c2cnn3ccc(N[C@@H]4CCCC(O)[C@@H]4N)nc23)c(C(F)(F)F)n1` (single isomer, unassigned) [Example 201, 5-{[(1R,2R)- or (1S,2S)-2-amino-3-hydroxycyclohexyl]amino}-N-[1-methyl-3-(trifluoromethyl)-1H-pyrazol-4-yl]pyrazolo[1,5-a]pyrimidine-3-carboxamide], the concentration for half-maximal inhibition (IC50) (IRAK4 IC50 (nM)) was 4 nM. As for `Cn1cc(NC(=O)c2cnn3ccc(N4C[C@H]5CC[C@@H]4CN5)nc23)c(Cl)n1` (single isomer, unassigned) [Example 152, N-(3-chloro-1-methyl-1H-pyrazol-4-yl)-5-[(1S,4S)- or (1R,4R)-(2,5-diazabicyclo[2.2.2]oct-2-yl]pyrazolo[1,5-a]pyrimidine-3-carboxamide trifluoroacetate], under “read-out: IRAK4 IC50”, the half-maximal inhibitory concentration (IC50) is 28 nM. With `N[C@H]1CCCC[C@H]1Nc1ccn2ncc(C(=O)Nc3c[nH]nc3C(F)(F)F)c2n1` [Example 301, 5-{[(1R,2S)-2-aminocyclohexyl]amino}-N-[3-(trifluoromethyl)-1H-pyrazol-4-yl]pyrazolo[1,5-a]pyrimidine-3-carboxamide trifluoroacetate], the half-inhibitory concentration (IC50) (read-out: IRAK4 IC50) came to 0.8 nM.
